Molecules are shown by their SMILES. Like-named read-outs stand apart in the source and are kept apart here.

From patent US7786164B2, “Lipophilic di(anticancer drug) compounds, compositions, and related methods” (Sonus Pharmaceuticals, Inc., priority 2005, dated 2010) come the findings set out here.

Common to all, as to type: cell-based
For experiment [1], the system named is SKOV-3 (ovarian) cancer cell line. The experiment can be described thus: In vitro cytotoxicity (GI50), Sulforhodamine B staining, SKOV-3. As to conditions: Homo sapiens, read-out: Drug concentration that produces 50% cell growth inhibition (GI50), SKOV-3 (OVARIAN). As to the method: (§1) In this example, the in vitro cytotoxicity, as measured by GI50 (50% of growth inhibition) values, was determined for representative lipophilic di(anticancer drug) compounds of the invention. The GI50 values of sebacate bis(7-ethylcamptothecin-10-yl)ester, sebacate bis(camptothecin-20-yl)ester, sebacate bis(paclitaxel-2′-yl)ester, and sebacate bis(docetaxel-2′-yl)ester, were measured in the following cancer cell lines: NCI-H460 (non-small cell lung), MDA-MB-231 (breast), […] (colon), and SKOV-3 (ovarian).
(§2) The study was performed using a solution of the lipophilic di(anticancer drug) compounds in DMSO (1 mM) diluted in the corresponding cell media. The cells were in contact with varying concentrations of the drug for a period of 48 hours. At the end of 48 hours, staining with Sulforhodamine B was performed to determine the number of viable cells and calculate the degree of cellular growth inhibition as compared to a control group.
For orientation: The SRB assay estimates cell density from bound dye.

Experiment [2] relates to HCT-116 (colon) cancer cell line. Put plainly: In vitro cytotoxicity (GI50), Sulforhodamine B staining, HCT-116. The settings on record: Homo sapiens, read-out: Drug concentration that produces 50% cell growth inhibition (GI50), HCT-116 (COLON). As to the method: as §1, §2
Experiment [3] deals with MDA-MB-231 (breast) cancer cell line. The experiment can be described thus: In vitro cytotoxicity (GI50), Sulforhodamine B staining, MDA-MB-231. The settings on record: Homo sapiens, read-out: Drug concentration that produces 50% cell growth inhibition (GI50), MDA-MB-231 (BREAST). As to the method:
as §1, §2

Experiment [4] deals with NCI-H460 (non-small cell lung) cancer cell line. The experiment can be described thus: In vitro cytotoxicity (GI50), Sulforhodamine B staining, NCI-H460. As to conditions: Homo sapiens, read-out: Drug concentration that produces 50% cell growth inhibition (GI50), H460 (NSCLC). The procedure: as §1, §2
Setting [5] is: SK-OV-3, SKOV-3 (ovarian) cells, 48 hours contact, Sulforhodamine B.
Where [6] appears, read: HCT-116 (colon) cells, 48 hours contact, Sulforhodamine B.
The mark [7] stands for this setting: MDA-MB-231 (breast) cells, 48 hours contact, Sulforhodamine B.
[8] abbreviates: NCI-H460, H460 (NSCLC) cells, 48 hours contact, Sulforhodamine B.

With `CCc1c2c(nc3ccc(OC(=O)CCCCCCCCC(=O)Oc4ccc5nc6c(c(CC)c5c4)Cn4c-6cc5c(c4=O)COC(=O)[C@]5(O)CC)cc13)-c1cc3c(c(=O)n1C2)COC(=O)[C@]3(O)CC` [sebacate bis(7-ethylcamptothecin-10-yl), decanedioic acid bis[(4S)-4,11-diethyl-3,4,12,14-tetrahydro-4-hydroxy-3,14-dioxo-1H-pyrano[3′,4′:6,7]indolizino[1,2-b]quinolin-9-yl]ester], the GI50 in experiment [1] (SK-OV-3, 48 h) is 8.53 nM; in experiment [2] (HCT-116, 48 h), 4.58 nM; in experiment [3] (MDA-MB-231, 48 h) it was 303 nM; in experiment [4] (NCI-H460, 48 h), 3.03 nM.

Turning to `CC[C@@]1(OC(=O)CCCCCCCCC(=O)O[C@]2(CC)C(=O)OCc3c2cc2n(c3=O)Cc3cc4ccccc4nc3-2)C(=O)OCc2c1cc1n(c2=O)Cc2cc3ccccc3nc2-1` [sebacate bis(camptothecin-20-yl)ester, decanedioic acid bis[(4S)-4-ethyl-3,4,12,14-tetrahydro-3,14-dioxo-1H-pyrano[3′,4′:6,7]indolizino[1,2-b]quinolin-4-yl]ester], the GI50 in experiment [1] (setting [5]) is 8540 nM; in experiment [2] (setting [6]), 849 nM; in experiment [3] (setting [7]) it was 9250 nM; in experiment [4] (setting [8]) it was 3150 nM.

On to `CC(=O)O[C@@]12CO[C@@H]1C[C@H](O)[C@@]1(C)C(=O)[C@H](O)C3=C(C)[C@@H](OC(=O)[C@H](OC(=O)CCCCCCCCC(=O)O[C@@H](C(=O)O[C@H]4C[C@@]5(O)[C@@H](OC(=O)c6ccccc6)[C@@H]6[C@]7(OC(C)=O)CO[C@@H]7C[C@H](O)[C@@]6(C)C(=O)[C@H](O)C(=C4C)C5(C)C)[C@@H](NC(=O)OC(C)(C)C)c4ccccc4)[C@@H](NC(=O)OC(C)(C)C)c4ccccc4)C[C@@](O)([C@@H](OC(=O)c4ccccc4)[C@H]21)C3(C)C` [sebacate bis(docetaxel-2′-yl)ester, decanedioic acid bis[(1R,2S)-1-[[[(2aR,4S,4aS,6R,9S,11S,12S,12aR,12bS)-12b-(acetyloxy)-12-(benzoyloxy)-2a,3,4,4a,5,6,9,10,11,12,12a,12b-dodecahydro-4,6,11-trihydroxy-4a,8,13,13-tetramethyl-5-oxo-7,11-methano-1H-cyclodeca[3,4]benz[1,2-b]oxet-9-yl]oxy]carbonyl]-2-[[(1,1-dimethylethoxy)carbonyl]amino]-2-phenylethyl]ester], for which the GI50 worked out at 135 nM in experiment [1] (setting [5]), 20.9 nM in experiment [2] (setting [6]), 111 nM in experiment [3] (setting [7]) and 16.7 nM in experiment [4] (setting [8]).

As to `CC(=O)O[C@H]1C(=O)[C@@]2(C)[C@H]([C@H](OC(=O)c3ccccc3)[C@]3(O)C[C@H](OC(=O)[C@H](OC(=O)CCCCCCCCC(=O)O[C@@H](C(=O)O[C@H]4C[C@@]5(O)[C@@H](OC(=O)c6ccccc6)[C@@H]6[C@]7(OC(C)=O)CO[C@@H]7C[C@H](O)[C@@]6(C)C(=O)[C@H](OC(C)=O)C(=C4C)C5(C)C)[C@@H](NC(=O)c4ccccc4)c4ccccc4)[C@@H](NC(=O)c4ccccc4)c4ccccc4)C(C)=C1C3(C)C)[C@]1(OC(C)=O)CO[C@@H]1C[C@@H]2O` [sebacate bis(paclitaxel-2′-yl)ester, decanedioic acid bis[(1R,2S)-2-(benzoylamino)-1-[[[(2aR,4S,4aS,6R,9S,11S,12S,12aR,12bS)-6,12b-bis(acetyloxy)-12-(benzoyloxy)-2a,3,4,4a,5,6,9,10,11,12,12a, 12b-dodecahydro-4,11-dihydroxy-4a,8,13,13-tetramethyl-5-oxo-7,11-methano-1H-cyclodeca[3,4]benz[1,2-b]oxet-9-yl]oxy]carbonyl]-2-phenylethyl]ester], the GI50 in experiment [1] (SK-OV-3, 48 h) was 40.2 nM; in experiment [2] (HCT-116, 48 h), 39.9 nM; in experiment [3] (MDA-MB-231, 48 h) it was 84.3 nM; in experiment [4] (NCI-H460, 48 h) it was 83.2 nM.
